From PubChem BioAssay (NCI) come the findings set out here.

Test systems include NCI-H460 lung; ACHN renal; A549 NSCLC; IGROV1 ovarian; HCT-15 colon; SK-OV-3 ovarian; KM12 colon; SK-MEL-2 melanoma; K-562 leukemia; HS 578T breast.
Holding throughout (test): NCI-60 cell line screen, 48 h

Several values for one entry are separate records, joined by “and”; a condition that tells them apart may be missing. Equal entries are not always repeated.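 Where inhibition never reached the appropriate level, the endpoint shown equals the highest concentration tested. Otherwise, values were interpolated linearly from a five-concentration, 48-hour dose response in 96-well plates. GI50 is the concentration that inhibits growth by half. TGI is the concentration that stops growth completely.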

Consider `COc1ccc(/C=N\NC(=O)CN2CCN(c3cc4c(cc3F)c(=O)c(C(=O)N/N=C/c3ccc(OC)c(OC)c3)cn4C3CC3)CC2)cc1OC`, for which the GI50 in the experiment with NCI-H460 lung was 2.6 µM; with ACHN renal it was over 100 µM; with A549 NSCLC, 4.3 µM; in the experiment on IGROV1 ovarian, 3.1 µM; with HCT-15 colon, over 100 µM; with SK-OV-3 ovarian, 3.22 µM. The GI50 was 3.42 µM in the experiment with KM12 colon, 2.72 µM in the experiment on SK-MEL-2 melanoma, 3.81 µM in the experiment with K-562 leukemia and 2.51 µM in the experiment on HS 578T breast. Besides, the TGI is 6.87 µM in the experiment with NCI-H460 lung; over 100 µM with ACHN renal; 75.9 µM in the experiment with A549 NSCLC; 17.1 µM in the experiment with IGROV1 ovarian; over 100 µM with HCT-15 colon; 9.67 µM in the experiment on SK-OV-3 ovarian. The TGI in the experiment with KM12 colon was 10.7 µM; in the experiment on SK-MEL-2 melanoma it was 7.28 µM; in the experiment with K-562 leukemia, over 100 µM; with HS 578T breast, 8.99 µM.

Turning to `O=C1c2ccccc2-c2c1c1ccccc1c(=O)n2CCCNCCCn1ccnc1`, the GI50 in the experiment with NCI-H460 lung was 1.27 µM; with ACHN renal, 0.252 µM; with A549 NSCLC, 1.02 µM; with IGROV1 ovarian it was 0.442 µM; in the experiment on HCT-15 colon it was 0.44 µM; in the experiment with SK-OV-3 ovarian it was 3.16 µM. Also, the GI50 in the experiment with KM12 colon is 0.593 µM; in the experiment on SK-MEL-2 melanoma, 2.56 µM; in the experiment with K-562 leukemia, 0.529 µM; with HS 578T breast, 0.545 µM. Also, the TGI in the experiment on NCI-H460 lung was 43.1 µM; with ACHN renal it was 0.879 µM; in the experiment with A549 NSCLC it was 20.1 µM; in the experiment with HCT-15 colon it was 10.1 µM; in the experiment on SK-OV-3 ovarian it was 17.7 µM; in the experiment on KM12 colon, 2.41 µM. Further, the results for the TGI in the experiment on SK-MEL-2 melanoma, in the experiment with K-562 leukemia and in the experiment on HS 578T breast were 8.17 µM, 2.65 µM and 5 µM, respectively.

For `CC(O)c1cccc(NCc2c3ccccc3c(=O)n3c2oc2ccccc23)c1` (stereo not given), the GI50 in the experiment with NCI-H460 lung is over 100 µM; in the experiment with ACHN renal it was 3.51 µM; in the experiment with A549 NSCLC it was 2.33 µM; with IGROV1 ovarian it was 1.32 µM; in the experiment on HCT-15 colon, 5.56 µM; in the experiment on SK-OV-3 ovarian, 4.42 µM. For the same molecule, the GI50 in the experiment on KM12 colon is 13.4 µM; with SK-MEL-2 melanoma, 6.31 µM; with K-562 leukemia it was over 100 µM; in the experiment on HS 578T breast, 4.43 µM. Further, the TGI with NCI-H460 lung is over 100 µM; with ACHN renal, 13.5 µM; in the experiment on A549 NSCLC it was 24 µM; with IGROV1 ovarian, 27 µM; with HCT-15 colon, 28.8 µM; in the experiment with SK-OV-3 ovarian, 30.6 µM. The TGI in the experiment with KM12 colon is over 100 µM; in the experiment on SK-MEL-2 melanoma it was 46.9 µM; with K-562 leukemia, over 100 µM; in the experiment on HS 578T breast, 57.4 µM.

For the molecule `COC(=O)CCc1cc(OC)c2c(c1)C(C(=O)OC)C(c1ccc(OC)c(OC)c1)O2` (stereo not given), the GI50 was > 100 µM and 46.4 µM with NCI-H460 lung; > 100 µM and 38 µM in the experiment with A549 NSCLC; > 100 µM and 21.5 µM in the experiment on IGROV1 ovarian; > 100 µM and 39.6 µM in the experiment on SK-OV-3 ovarian; > 100 µM and 19.6 µM in the experiment with KM12 colon; > 100 µM and 43.4 µM in the experiment with HS 578T breast. Besides, the TGI in the experiment with NCI-H460 lung, with ACHN renal, in the experiment with A549 NSCLC, with IGROV1 ovarian, in the experiment with HCT-15 colon and with SK-OV-3 ovarian was over 100 µM throughout. For the same molecule, the TGI in the experiment with KM12 colon, with SK-MEL-2 melanoma, in the experiment with K-562 leukemia and in the experiment with HS 578T breast was over 100 µM in each case.

`NOCC(=O)O`: the GI50 was over 100 µM with NCI-H460 lung; over 100 µM in the experiment on ACHN renal; 49.5 µM in the experiment with A549 NSCLC; over 100 µM with IGROV1 ovarian; over 100 µM with HCT-15 colon; over 100 µM in the experiment on SK-OV-3 ovarian. The GI50 in the experiment on KM12 colon was over 100 µM; in the experiment with SK-MEL-2 melanoma, over 100 µM; with K-562 leukemia, over 100 µM; with HS 578T breast, 71.1 µM. For the same molecule, the TGI in the experiment with NCI-H460 lung, in the experiment with ACHN renal, with A549 NSCLC, in the experiment on IGROV1 ovarian, with HCT-15 colon and with SK-OV-3 ovarian was over 100 µM each time. Besides, the TGI in the experiment with KM12 colon, in the experiment with SK-MEL-2 melanoma, in the experiment on K-562 leukemia and in the experiment with HS 578T breast was over 100 µM in each case.

Regarding `O=S(=O)(NC1=NCCN1C(=S)SN1CCn2c1nsc2=S)c1ccc(Br)cc1`, the GI50 in the experiment on NCI-H460 lung was 38.9 µM; in the experiment with ACHN renal it was 22.2 µM; with A549 NSCLC, over 100 µM; in the experiment on IGROV1 ovarian, 30.7 µM; in the experiment with HCT-15 colon it was 31.8 µM; in the experiment with SK-OV-3 ovarian it was 37.8 µM. For the same molecule, the GI50 in the experiment on KM12 colon was 25.5 µM; with SK-MEL-2 melanoma it was 18.7 µM; with K-562 leukemia, 24.6 µM; in the experiment with HS 578T breast it was 21.4 µM. The TGI with NCI-H460 lung is over 100 µM; with ACHN renal, 73.6 µM; in the experiment on A549 NSCLC, over 100 µM; in the experiment with IGROV1 ovarian, 95 µM; with HCT-15 colon it was over 100 µM; in the experiment on SK-OV-3 ovarian, over 100 µM. In addition, the TGI is over 100 µM in the experiment with KM12 colon, 46.4 µM with SK-MEL-2 melanoma, 83.2 µM with K-562 leukemia and 67.2 µM in the experiment on HS 578T breast.

For the molecule `O=C1Nc2ccc(C(=O)c3ccco3)cc2/C1=C/c1cc(Cl)c(O)c(Cl)c1`, the GI50 is 4.23 µM with NCI-H460 lung; 2.14 µM in the experiment on ACHN renal; 6.77 µM in the experiment on A549 NSCLC; 3.36 µM in the experiment with IGROV1 ovarian; 4.16 µM with HCT-15 colon; 4.51 µM in the experiment on SK-OV-3 ovarian. In addition, the GI50 was 3.62 µM with KM12 colon, 2.86 µM in the experiment with SK-MEL-2 melanoma, 9.05 µM with K-562 leukemia and 4.94 µM in the experiment on HS 578T breast. Also, the TGI is over 22.8 µM in the experiment on NCI-H460 lung; 11.1 µM with ACHN renal; over 24 µM with A549 NSCLC; over 20.7 µM in the experiment with IGROV1 ovarian; over 25 µM in the experiment with HCT-15 colon; 16.1 µM in the experiment with SK-OV-3 ovarian. Also, the TGI in the experiment with KM12 colon was over 17.7 µM; in the experiment on SK-MEL-2 melanoma, 7.21 µM; with K-562 leukemia, over 25 µM; in the experiment with HS 578T breast, over 21.7 µM.
